What all share (assay type): cell-based, human
The test system of one data set is U-87MG cells. Briefly: Cell viability assay (Ann/PI staining, FACS) with VP16 or Taxol. Particulars: for proliferation of cells in the control group (no TG or PTPI): 5-day cell cultures, U-87MG (not shown). How it is done: (§1) Treatment of cells with TG, GW, PTPI, and/or SHPI for 24 h was followed by treatment with rTRAIL, VP16 or Taxol, and all the cells, including cells that had not adhered, were harvested after 24 h (48 h). An annexin V-fluorescein isothiocyanate apoptosis detection kit I (Pharmingen) was used for viability assay of the cells. Cells were stained with annexin V-fluorescein isothiocyanate (Ann) and propidium iodide (PI) according to the manufacturer's protocol and were analyzed by FACS (Pharmingen). Cells that stained negative for both Ann and PI were defined as viable cells for viability assay.
(§2) Based on this hypothesis, a determination was sought whether TG enhances the cytotoxic activities of etoposide (VP16) and paclitaxel (Taxol), which are known to involve activation of caspase-2, -8, -9, and -10 during their apoptosis induction (Lin et al. (2004) J. Biol. Chem. 279, 40755-40761.; Perkins et al. (2000) Cancer Res. 60, 1645-1653.; Park et al. (2004) J. Biol. Chem. 279, 51057-51067.). To confirm this, treatment of U-87MG with TG and/or PTPI was followed by treatment with VP16 (0.01-10 μM) or Taxol (0.005-5 μM). The cells were then subjected to cell viability (FIGS. 7, A and B) and caspase activity assays (FIGS. 7, C and D).

Data set [1] has as its system LN-18, U-87MG, and MG-328 glioma cells. Description: Cell viability assay (Ann/PI staining, FACS) with TRAIL. How it is done:
as §1

In data set [2] the test system is caspase-3, -8, and -9. Description: Caspase activity assay in TRAIL-treated glioma cells. How it is done: (§3) Activity of caspase-3, -8, and -9 was measured using caspase-3/CPP32, FLICE/caspase-8, and APOPCYTO/caspase-9 […] assay kits, respectively, from Medical and Biological Laboratories Co. (Nagoya, Japan). Briefly, the treatment of cells with TG, GW, and/or PTPI for 24 h was followed by treatment with rTRAIL, VP 16 or Taxol. After 2 h (24 h) of treatment, all the cells were harvested, and samples were extracted with Cell Lysis Buffer. Concurrently, a sample for a negative control was extracted from the cells without apoptosis induction. A standard curve using the absorbance of p-nitroanilide standards was constructed, and then the specific activities on each sample were calculated according to the manufacturer's protocol.

The subject of data set [3] is STAT3, pY705-STAT3, FLIP, Bcl-2, Bax, pS392-p53, PTP1B, SHP-1. Description: Western blot of glioma cell protein extracts. The source says: Rabbit polyclonal Abs against DR4, DR5, and PPARγ were obtained from Cayman Chemical. Mouse monoclonal Abs against STAT3, phosphotyrosine 705 STAT3 (pY705-STAT3), which is an activated form of STAT3, Bax, and Bcl-2 were obtained from Pharmingen. Rabbit polyclonal Abs against p53 and phosphor-Ser-392-p53 (pS392-p53) were obtained from Cell Signaling Technology (Beverly, Mass.). Mouse monoclonal Abs against PTP1B (PTPase1B; AE4-2J) and Src homology 2-containing PTP-1 (SHP1; 1SH01) and rabbit polyclonal Ab against FLIP were obtained from Calbiochem. Mouse monoclonal Ab of β-tubulin was obtained from Sigma. Horseradish peroxidase-linked Abs of sheep anti-mouse IgG and donkey anti-rabbit IgG were obtained from Amersham Biosciences.
Samples were extracted with buffer containing 1% Triton X-100, 150 mM NaCl, 50 mM Tris (pH 7.5), and 1 mM phenylmethylsulfonyl fluoride (Roche Applied Science) and were subjected to SDS-PAGE with 30 μg of general protein loading into each lane on a 10% polyacrylamide gel. Electrophoretic transfer to nitrocellulose membranes (Amersham Biosciences) was followed by immunoblotting. The signal was detected by using an ECL detection system (Amersham Biosciences).

The test system of a further data set is STAT3 mRNA. Description: Real time quantitative RT-PCR. Conditions: LN-18; STAT3-siRNA 50-600 pmol; 24 h after transfection; dose-dependent. The procedure: DNA amplification was performed using an […] […] ID NO: 3), STAT3 reverse, [NT] ID NO: 4); and β-actin forward, [NT] ID NO: 5), β-actin reverse, [NT] ID NO: 6).
Data set [4] relates to caspase-3, -8, and -9. Description: Caspase activity assay in U-87MG treated with VP16 or Taxol. Conditions: PTPI 50 μM and TG 30 μM for 24 h, then VP16 10 μM or Taxol 5 μM. How it is done:
as §3, §2

The test system of the next data set is LN-18. Briefly: Annexin V apoptosis detection (FACS) after TRAIL treatment. Conditions: TRAIL 300 ng/ml. The procedure: […] An annexin V-fluorescein isothiocyanate apoptosis detection kit I (Pharmingen) was used for viability assay of the cells. Cells were stained with annexin V-fluorescein isothiocyanate (Ann) and propidium iodide (PI) according to the manufacturer's protocol and were analyzed by FACS (Pharmingen). Cells that stained negative for both Ann and PI were defined as viable cells for viability assay.
To examine the mechanism that causes resistance to TRAIL, glioma cell lines were used that are partially resistant to TRAIL despite their expression of DR4 and/or DR5. Western blot was used to detect the expression levels of DR4 and DR5 in LN-18, U-87MG, and MG-328 (FIG. 1A). The cytotoxic activity of TRAIL (18.75-300 ng/ml) was examined in each glioma (FIGS. 1, B and C). […] These findings indicate that these gliomas can acquire a resistance to TRAIL despite their expression of functionally intact DR4/5.

Where [5] appears, read: STAT3-siRNA-transfected glioma cells.
Setting [6] is: SHPI 200 μM and TG 30 μM, then rTRAIL (not shown).

d = 2'-deoxy (DNA); r = 2'-OH (RNA)

Regarding `COc1cc([C@@H]2c3cc4c(cc3[C@@H](O[C@@H]3O[C@@H]5CO[C@@H](C)O[C@H]5[C@H](O)[C@H]3O)[C@H]3COC(=O)[C@H]23)OCO4)cc(OC)c1O` [VP16, Etoposide], the “proliferation of cells in the control group (no TG or PTPI)” value with U-87MG cells (VP16 10 μM) is reported as “maintained an ability to proliferate”.
Turning to “STAT3-siRNA: double-stranded siRNA oligonucleotide against STAT3 (SEQ ID NO: 1 and 2), Dharmacon (chain 1 AACAUCUGCCUAGAUCGGCUATT; chain 2 UAGCGGAUCUAGGCAGAUG; chain 1: sugars from the 5' end r21 d2, backbone not given here; chain 2: RNA, 3' dTdT, backbone not given here)”, the “effect on the cytotoxic effect of TRAIL” value in data set [1] (STAT3-siRNA 600 pmol, then TRAIL 100 ng/ml for 24 h) was “significantly enhanced”. Further, the “apoptotic death of glioma cells, agent alone” value in data set [1] (STAT3-siRNA 600 pmol, without rTRAIL) is “did not induce their apoptotic death”. Moreover, the “specific activities of caspases-3, -8, and -9” value in the data set on caspase-3, -8, and -9 [2] (STAT3-siRNA 600 pmol, then TRAIL 100 ng/ml for 2 h) is given as “significantly increased”. In addition, the “inhibitory effect of PTPI on TG in transfected glioma cells (caspase activity)” value in the data set on caspase-3, -8, and -9 [2] (STAT3-siRNA 600 pmol, cells treated with TG, PTPI and TRAIL) is listed as “negated”. Moreover, in data set [3] (LN-18, STAT3-siRNA 50-600 pmol, 24 h after transfection, dose-dependent), the STAT3 protein expression entry was “decreased”. In addition, in data set [3] (setting [5]), the Bax expression levels entry is “not altered”; the “FLIP and Bcl-2 expression levels” value is given as “decreased”; the pY705-STAT3 expression result is reported as “down-regulated”. In the data set on STAT3 mRNA, the “STAT3 mRNA expression” value is reported as “decreased”.
Regarding `Cc1c(C)c2c(c(C)c1O)CCC(C)(COc1ccc(CC3SC(=O)NC3=O)cc1)O2` (centres unmarked) [TG, troglitazone], the “effect on the cytotoxic activity of TRAIL” value in data set [1] (TG 30 μM for 24 h, then rTRAIL 100 ng/ml for 24 h, LN-18, U-87MG and MG-328) is reported as “significantly enhance”. In addition, the “effect on the cytotoxic activity of Taxol (cell viability)” value with U-87MG cells (U-87MG, TG 30 μM for 24 h, then Taxol 0.005-5 μM for 48 h) is “positive activities”. The “effect on the cytotoxic activity of VP16 (cell viability)” value in the data set on U-87MG cells (U-87MG, TG 30 μM for 24 h, then VP16 0.01-10 μM for 48 h) is listed as “positive activities”. In addition, in data set [3] (TG 30 μM), the “time at which down-regulation of pY705-STAT3 was noticeable” value stood at 8 h. In data set [3] (TG 30 μM, LN-18, U-87MG, MG-328), the STAT3 expression levels entry is reported as “no effect”. Further, in data set [3] (TG 30 μM, all gliomas), the “time at which 42 kDa PTP1B expression reached maximum levels” value was in the range of 16 to 32 h and the “time of start of up-regulation of the activated form of PTP1B (42 kDa) after treatment” value is at most 4 h.
Turning to `CC(=O)O[C@H]1C(=O)[C@@]2(C)[C@H]([C@H](OC(=O)c3ccccc3)[C@]3(O)C[C@H](OC(=O)[C@H](O)[C@@H](NC(=O)c4ccccc4)c4ccccc4)C(C)=C1C3(C)C)[C@]1(OC(C)=O)CO[C@@H]1C[C@@H]2O` [Taxol, paclitaxel], the “proliferation of cells in the control group (no TG or PTPI)” value in the data set on U-87MG cells (Taxol 5 μM) is given as “maintained an ability to proliferate”.
Turning to `O=C(Nc1ccccc1)c1cc([N+](=O)[O-])ccc1Cl` [GW, GW9662], the “effect on the activity of TG in TRAIL-treated glioma cells (cell viability)” value in data set [1] (GW 20 μM and TG 30 μM for 24 h, then rTRAIL 100 ng/ml for 24 h) is “not blocked”. Further, in the data set on caspase-3, -8, and -9 [2] (GW 20 μM and TG 30 μM for 24 h, then rTRAIL 100 ng/ml for 2 h), the “effect on the specific activities of caspases in TG/TRAIL-treated cells” value was “did not reduce”. Further, the “pY705-STAT3 expression in cells treated with TG and GW” value in data set [3] (GW 20 μM and TG 30 μM for 24 h) is “down-regulation of pY705-STAT3 was observed”. Also, the “effect on the up-regulation of pS392-p53 induced by TG” value in data set [3] (GW 20 μM and TG 30 μM for 24 h, LN-18 and U-87MG) was “abrogated”. For the same molecule, in data set [3] (GW 20 μM and TG 30 μM for 24 h, U-87MG), the “effect on the up-regulation of Bax found in TG-treated cells” value is given as “inhibited”.
Consider `O=C(O)COc1ccc(C(=O)CBr)cc1` [SHPI, α-bromo-4-carboxymethoxyacetophenone], for which, in data set [1] (setting [6]), the “effect on the effect of TG on TRAIL (cell viability)” value is given as “did not abrogate”. Besides, in the data set on caspase-3, -8, and -9 [2] (setting [6]), the “effect on the effect of TG on TRAIL (caspase activity)” value was “did not abrogate”. Besides, the “effect on the downregulation of pY705-STAT3 induced by TG” value in data set [3] (SHPI 200 μM and TG 30 μM for 24 h) was “did not inhibit”.
`O=C(CBr)c1ccc(O)cc1` [PTPI, α-bromo-4-hydroxyacetophenone]: the “effect on the effect of TG on TRAIL (cell viability)” value in data set [1] (PTPI 50 μM and TG 30 μM, then rTRAIL 100 ng/ml (not shown)) is listed as “abrogated”. Also, in the data set with U-87MG cells (U-87MG, PTPI 50 μM and TG 30 μM for 24 h, then VP16 or Taxol), the “inhibition of the cytotoxic activity in TG-treated cells with VP16 or Taxol” value is on record as “limited effect”. Further, the “effect on the effect of TG on TRAIL (caspase activity)” value with caspase-3, -8, and -9 [2] (PTPI 50 μM and TG 30 μM, then rTRAIL 100 ng/ml for 2 h) is given as “abrogated”. Further, in the data set on caspase-3, -8, and -9 [4], the “effect on the effect of TG on the activity of caspase-8 and -9” value was “completely abrogated”; the “inhibition of caspase-3 activity in TG-treated cells with VP16 or Taxol” value is recorded as “limited effect”. The “effect on the inhibitory effect of TG on pY705-STAT3” value in data set [3] (PTPI 50 μM and TG 30 μM for 24 h) is “abrogated”. The “effect on the upregulation of pS392-p53 caused by TG” value in data set [3] (PTPI 50 μM and TG 30 μM for 24 h, LN-18 and U-87MG) is “did not inhibit”.

B1: TRAIL: Recombinant human tumor necrosis factor-related apoptosis-inducing ligand, obtained from Pepro-Tech (protein, UniProt P50591 1-281, looked up)
Tumor necrosis factor ligand …: MAMMEVQGGPSLGQTCVLIVIFTVLLQSLCVAVTYVYFTNELKQMQDKYSKSGIACFLKEDDSYWDPNDEESMNSPCWQVKWQLRQLVRKMILRTSEETISTVQEKQQNISPLVRERGPQRVAAHITGTRGRSNTLSSPNSKNEKALGRKINSWESSRSGHSFLSNLHLRNGELVIHEKGFYYIYSQTYFRFQEEIKENTKNDKQMVQYIYKYTSYPDPILLMKSARNSCWSKDAEYGLYSIYQGGIFELKENDRIFVSVTNEHLIDMDHEASFFGAFLVG
For the molecule B1, the “percentage of Ann(+) PI(−) cells (early stage of apoptosis)” value was 33.7% in the data set on LN-18 (after 2 h of treatment) and 60.1% with LN-18 (after 24 h of treatment). In addition, the cell death in data set [1] (300 ng/ml TRAIL, after 24 h of treatment, LN-18, U-87MG, MG-328) is 40-60%. The “cells killed by TRAIL in the STAT3-siRNA-transfected group” value in data set [1] (TRAIL 100 ng/ml, 72-h cell culture, each glioma (not shown)) is given as “more than 95%”. The “proliferative ability of the viable cells” value in data set [1] (after 72 h of cell culture with 300 ng/ml TRAIL (not shown)) is “maintained a proliferative ability”.

Source of the values: patent US20090264483A1, “METHODS OF USING PPAR-gamma AGONISTS AND CASPASE-DEPENDENT CHEMOTHERAPEUTIC AGENTS FOR THE TREATMENT OF CANCER” (CEDARS-SINAI MEDICAL CENTER, priority 2006, published 2009).
